From patent US20020037898A1, “Topical micronutrient delivery system and uses thereof” (priority 2000, published 2002)
Where two headings read alike, the source gives them in different places.

Tests used:
[1] = tested on: endothelial cells of the blood capillaries; test: Erythematous response / vasodilation at the site of topical application
Experimental: (§1) After three days, skin was removed from both the site of application and from the abdomen of each animal, and the NAD content was analyzed.

skin of hairless mice = test: Skin NAD content following topical application of niacin pronutrients; type: in vivo, female hairless mice (HRS-J); conditions: for Effect on skin NAD content at site of application (in words): topical application, back of hairless mice; for Effect on NAD content of the abdomen (in words): where the pronutrient was not applied; for Skin NAD content of abdomen / Skin NAD content of abdomen, %: not the site of application; for Skin NAD content of abdomen: 1% in lotion applied to back once per day for three days; for Skin NAD content of abdomen / Skin NAD content of back: hairless mice; for Skin NAD content of abdomen, % / Skin NAD content of back, %: relative to lotion only = 100; for Skin NAD content of abdomen, %: 1% in lotion applied to back; for Skin NAD content of back, % / Skin NAD content of back: site of application, 1% in lotion; for Skin NAD content of back, %: once per day for three days; for Skin NAD content of back: topical once per day for three days
Experimental: In animal experiments, female hairless mice (HRS-J, 6-8 weeks old), received daily topical application of nicotinic acid esters, using 200 mg of commercially available “Vanicream” lotion, at a 1.0% (wt/wt) concentration, for three days. Control animals received Vanicream only.
Animals were euthanized, and dorsal and ventral skin samples were then frozen in liquid nitrogen, and stored at −80° C. In order to analyze NAD and protein content, tissue samples were homogenized, in 0.5M, ice cold HClO4, and then centrifuged at 3000 rpm for 15 minutes. The resulting supernatants were neutralized with ice-cold 2M KOH/0.66M KH2PO4, in order to determine NAD. The NAD was determined in accordance with Jacobson, et al., Meth. Enzymol. 280: 221-230 (1997) incorporated by reference, while a commercially available BCA method was used for protein determination.

[2] = tested on: endothelial cells of the blood capillaries; conditions: in vivo
Experimental: as §1

[3] = tested on: endothelial cells of blood capillaries; test: Skin oxygen content by transcutaneous oxygen monitor after topical lotion; type: in vivo; conditions: lotion applied topically for thirty minutes, then removed
Text: In this experiment, a transcutaneous oxygen monitor has been used to determine oxygen content in the skin. A lotion containing the test compound was topically applied for thirty minutes. The lotion was then removed and the transcutaneous oxygen monitor was placed on the surface of the skin. […] Butyl benzoate was chosen as the co-ester.

Experimental for physchem: The lipophilicity is reported as log P values, where P refers to the octanol/water partition coefficient, described supra.
The Poct/w values for these compounds were determined in accordance with Hamisch, et al., J. Chromatog. […] In brief, this HPLC method determines capacity factor (“K′”) for each pronutrient, and also establishes a linear relationship between the logarithm of Poct/w and the logarithm of K′, for short chain pronutrients.

SMILES: CCCCCCCCCCCCCCCCCCOC(=O)c1cccnc1 [18 carbons]
- Erythematous Response [1]: No
- Effect on skin NAD content at site of application (in words) (skin of hairless mice): less effective

SMILES: NC(=O)c1cccnc1 [Nicotinamide, reference compound]
- Erythematous Response [2]: No
- Vasodilation at the site of topical application [2]: does not cause vasodilation
- Effect on skin NAD content at site of application (in words) (skin of hairless mice): no effect
- chromatographic logP (physchem): -0.34

SMILES: CCCCCCCCCCCCCOC(=O)c1cccnc1 [13 carbons]
- Erythematous Response [1]: No

SMILES: CCCCOC(=O)c1cccnc1 [4 carbons]
- Erythematous Response [1]: Yes

SMILES: CCCCCCCCCCOC(=O)c1cccnc1 [10 carbons]
- Erythematous Response [1]: Slight

SMILES: CCCCCCCCOC(=O)c1cccnc1 [8 carbons, octyl nicotinate]
- Skin oxygen content (PO2) [3]: increase in skin oxygen content
- Erythematous Response [1]: Yes
- chromatographic logP (physchem): 4.8

SMILES: CCCCCCCCCCCCCCCCOC(=O)c1cccnc1 [16 carbons]
- Erythematous Response [1]: No
- Effect on NAD content of the abdomen (in words) (skin of hairless mice): no increase
- Skin NAD content of abdomen (skin of hairless mice): 52.1 +/− 10.4 pmol NAD/mg tissue
- Skin NAD content of abdomen, % (skin of hairless mice): 86%
- Skin NAD content of back, % (skin of hairless mice): 120%
- Skin NAD content of back (skin of hairless mice): 109.5 +/− 8.3 pmol NAD/mg tissue
- Effect on skin NAD content at site of application (in words) (skin of hairless mice): increased NAD content

SMILES: CCCCCCCCCCCCOC(=O)c1cccnc1 [12 carbons]
- Erythematous Response [1]: No
- Effect on NAD content of the abdomen (in words) (skin of hairless mice): some delivery to the abdomen
- Skin NAD content of abdomen (skin of hairless mice): 82.6 +/− 14.8 pmol NAD/mg tissue
- Skin NAD content of abdomen, % (skin of hairless mice): 137%
- Skin NAD content of back, % (skin of hairless mice): 141%
- Skin NAD content of back (skin of hairless mice): 129.4 +/− 15.4 pmol NAD/mg tissue
- Effect on skin NAD content at site of application (in words) (skin of hairless mice): increased NAD content

SMILES: COC(=O)c1cccnc1 [1 carbon]
- Erythematous Response [1]: Yes

SMILES: CCCCCCCCCCCCCCOC(=O)c1cccnc1 [14 carbons]
- Erythematous Response [1]: No
- Effect on NAD content of the abdomen (in words) (skin of hairless mice): no increase
- Skin NAD content of abdomen (skin of hairless mice): 55.8 +/− 13.8 pmol NAD/mg tissue
- Skin NAD content of abdomen, % (skin of hairless mice): 92%
- Skin NAD content of back, % (skin of hairless mice): 181%
- Skin NAD content of back (skin of hairless mice): 165.7 +/− 12.0 pmol NAD/mg tissue
- Effect on skin NAD content at site of application (in words) (skin of hairless mice): most effective

SMILES: CCCCCCCCCCCCCCCOC(=O)c1cccnc1 [15 carbons]
- Erythematous Response [1]: No
